Consider three compounds from patent publication US6486174B2, “Tetrahydroisoquinoline-3-carboxylic acid alkoxyguanidines as integrin antagonists” (3-Dimensional Pharmaceuticals, Inc., priority 2000, dated 2002).

Each structure is given as a SMILES string. Counter-ions that a name gives are not always drawn.

The experiment deals with T1, human αvβ3 (Homo sapiens, UniProt P05106+P06756).
T1 construct: purchased Chemicon CC1019
As to the kind of experiment: αvβ3-vitronectin assay (ELISA, inhibition of biotinylated vitronectin binding). The following applies: plate-coated human αvβ3, biotinylated human vitronectin 0.5 μg/mL, room temperature; read-out: αvβ3 IC50 (Inhibition of the αvβ3-Vitronectin Interaction). The procedure:
The assay was based on the method of Niiya (Niiya, K., et al, Blood 70:475-483 (1987)). All the steps were performed at room temperature. Costar 9018 flat-bottom 96-well ELISA plates were coated overnight with 100 μL/well of 0.4 μg/mL human αvβ3 (Chemicon CC1019) in TS buffer (20 mM Tris-HCl pH 7.5, 150 mM NaCl, 1 mM CaCl2, 1 mM MgCl2, 1 mM MnCl2). Plates were blocked for 2 hours with 200 μL/well of TS buffer containing 1% BSA (TSB buffer), and washed 3 times with 200 μL/well of PBST buffer. Controls or test compound were mixed with 0.5 μg/mL of human vitronectin (Chemicon CC080) that had been biotinylated in-house with sulfo-NHS-LC-LC-biotin (Pierce 21338, 20:1 molar ratio), and 100 μL/well of these solutions (in TSB buffer) were incubated for 2 hours. The plate was then washed 5 times with PBST buffer, and 100 μL/well of 0.25 μg/mL NeutrAvidin-horseradish peroxidase conjugate (Pierce 31001) in TSB buffer was incubated for 1 hour. Following a 5-fold PBST buffer wash, the plate was developed by adding 100 μL/well of 0.67 mg o-phenylenediamine dihydrochloride per mL of 0.012% H2O2, 22 mM sodium citrate, 50 mM sodium phosphate, pH 5.0 at room temperature. The reaction was stopped with 50 μL/well of 2M H2SO4, and the absorbence at 492 nm was recorded. Percent (%) inhibition was calculated from the average of two separate determinations relative to buffer controls (no test compound added), and a four parameter fit (Marquardt, D. W., J. Soc. Indust. Appl. Math. 11:431-441 (1963)) was used to estimate the half maximal inhibition concentration (IC50).

T1 sequence (P06756 31-889 limits assumed): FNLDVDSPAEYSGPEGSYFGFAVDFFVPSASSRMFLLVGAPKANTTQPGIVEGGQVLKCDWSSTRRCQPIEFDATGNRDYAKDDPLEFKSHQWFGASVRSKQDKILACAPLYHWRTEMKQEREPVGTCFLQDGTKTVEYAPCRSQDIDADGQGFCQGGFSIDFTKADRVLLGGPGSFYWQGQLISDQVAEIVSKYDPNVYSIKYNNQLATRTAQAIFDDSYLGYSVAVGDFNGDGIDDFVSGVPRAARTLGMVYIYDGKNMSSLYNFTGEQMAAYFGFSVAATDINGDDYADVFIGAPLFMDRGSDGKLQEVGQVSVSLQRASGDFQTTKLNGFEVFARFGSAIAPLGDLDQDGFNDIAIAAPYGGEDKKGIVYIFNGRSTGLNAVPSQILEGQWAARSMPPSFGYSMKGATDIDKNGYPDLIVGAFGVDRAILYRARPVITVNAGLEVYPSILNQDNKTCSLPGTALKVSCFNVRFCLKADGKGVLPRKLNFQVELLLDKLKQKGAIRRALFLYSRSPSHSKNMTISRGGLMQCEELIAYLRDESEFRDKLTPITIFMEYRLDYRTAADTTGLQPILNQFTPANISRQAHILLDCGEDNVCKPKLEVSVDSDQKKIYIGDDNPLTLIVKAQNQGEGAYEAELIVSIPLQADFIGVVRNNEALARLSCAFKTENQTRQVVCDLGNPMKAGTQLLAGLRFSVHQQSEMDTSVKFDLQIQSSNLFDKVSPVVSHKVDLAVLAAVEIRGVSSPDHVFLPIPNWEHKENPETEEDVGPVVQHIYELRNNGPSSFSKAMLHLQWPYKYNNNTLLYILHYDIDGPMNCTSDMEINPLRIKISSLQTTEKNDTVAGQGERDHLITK
T1 sequence (P06756 891-1048 partner limits assumed): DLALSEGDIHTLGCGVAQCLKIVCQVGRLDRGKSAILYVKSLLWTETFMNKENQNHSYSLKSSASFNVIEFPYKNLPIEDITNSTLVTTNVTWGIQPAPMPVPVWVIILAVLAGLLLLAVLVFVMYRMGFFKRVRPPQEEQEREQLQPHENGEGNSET
T1 sequence (P05106 27-788): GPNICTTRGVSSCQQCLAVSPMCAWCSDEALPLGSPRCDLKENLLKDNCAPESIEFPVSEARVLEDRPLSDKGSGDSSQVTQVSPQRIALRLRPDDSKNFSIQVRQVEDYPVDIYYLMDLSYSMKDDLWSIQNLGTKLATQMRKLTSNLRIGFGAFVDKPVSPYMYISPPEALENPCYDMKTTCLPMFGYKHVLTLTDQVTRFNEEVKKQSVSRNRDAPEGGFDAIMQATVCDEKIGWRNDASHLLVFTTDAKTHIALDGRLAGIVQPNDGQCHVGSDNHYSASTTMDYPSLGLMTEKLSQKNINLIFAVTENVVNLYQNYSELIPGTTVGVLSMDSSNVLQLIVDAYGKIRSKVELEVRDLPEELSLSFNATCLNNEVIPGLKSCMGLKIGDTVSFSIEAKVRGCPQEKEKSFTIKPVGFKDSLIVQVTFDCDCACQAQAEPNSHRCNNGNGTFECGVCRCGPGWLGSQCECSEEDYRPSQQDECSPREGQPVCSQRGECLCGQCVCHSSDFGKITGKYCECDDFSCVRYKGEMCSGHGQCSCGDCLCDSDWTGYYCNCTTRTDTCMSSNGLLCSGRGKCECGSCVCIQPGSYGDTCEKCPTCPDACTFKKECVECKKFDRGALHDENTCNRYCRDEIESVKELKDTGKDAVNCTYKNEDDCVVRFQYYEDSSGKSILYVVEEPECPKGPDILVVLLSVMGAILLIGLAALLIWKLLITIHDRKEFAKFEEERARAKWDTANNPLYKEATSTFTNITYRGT

In the case of `COc1ccc(OC)c(S(=O)(=O)N2Cc3cc(OCCCONC(=N)N)ccc3C[C@H]2C(=O)O)c1` [Example 1, (3S)-7-[3-(Amidinoaminooxy)propoxy]-2-[(2,5-dimethoxyphenyl)sulfonyl]-1,2,3,4-tetrahydroisoquinoline-3-carboxylic acid trifluoroacetic Acid Salt], the IC50 (usually the concentration needed to halve the response being measured) was 73 nM.
With `N=C(N)NOCCCOc1ccc2c(c1)CN(S(=O)(=O)c1ccccc1)[C@H](C(=O)O)C2` [Example 2, (3S)-7-[3-(Amidinoaminooxy)propoxy]-2-(phenylsulfonyl)-1,2,3,4-tetrahydroisoquinoline-3-carboxylic Acid Trifluoroacetic Acid Salt], the IC50 worked out at 1100 nM.
For `N=C(N)NOCCCOc1ccc2c(c1)CN(S(=O)(=O)c1ccc3ccccc3c1)[C@H](C(=O)O)C2` [Example 3, (3S)-7-[3-(Amidinoaminooxy)propoxy]-2-(2-naphthylsulfonyl)-1,2,3,4-tetrahydroisoquinoline-3-carboxylic Acid Trifluoroacetic Acid Salt], the IC50 stood at 500 nM.
